Assay results as given in US3962256A, “2-Aminomethyl benzimidazole derivatives” (Delalande S.A., priority 1973, dated 1976).
Counter-ions that a name gives are not always drawn.

Legend:
[1] = system: gastric ulcers, provoked in a rat by tying of the pylorus (Shay ulcers); assay: Antiulcerous: reduction of Shay ulcers (tying of the pylorus); format: in vivo; conditions: 50 mg/Kg/i.d.
Protocol: The compounds of formula (I) administered by intraduodenal means reduce the extent of gastric ulcers, provoked in a rat by tying of the pylorus (Shay ulcers).
By way of example, there is listed in the following Table IX, the results obtained by the administrations of 50 mg/Kg/i.d. of different compounds of formula (I).

[2] = Lethal doses / percentage mortality, oral; format: in vivo; conditions: for mortality: in vivo, po
Description: As a result of a comparison between the pharmacologically active doses mentioned above and the lethal doses listed in the following Table XII, the difference between said doses is sufficiently great to permit the utilisation of the compounds of formula (I) in therapeutics.

[3] = system: explorations in the escape enclosure; assay: Sedative: reduction of number of explorations in the escape enclosure; format: in vivo; conditions: 100 mg/Kg/p.o., mouse
Protocol: The compounds of formula (I), administered by oral means to the mouse, reduce the number of explorations in the escape enclosure.
By way of example, the following Table VIII lists the results obtained by the administration of 100 mg/Kg/p.o. of different compounds of formula (I).

[4] = system: oedema caused by the sub-plantar injection of carraghenin; assay: Antiinflammatory: reduction of sub-plantar oedema caused by carraghenin, rat; format: in vivo; conditions: 100 mg/Kg/p.o.
Protocol: These properties are shown by a diminution of the local oedema caused by the sub-plantar injection of a phlogogenic agent, such as carraghenin, in the rat following the oral administration of compounds of formula (I).
The following Table VI lists, by way of example, the percentage reduction of the oedems caused by the sub-plantar injection of carraghenin, resulting from the administration of 100 mg/Kg/p.o. of different compounds of formula (I).

[5] = system: painful stretchings caused by the intraperitoneal injection of acetic acid; assay: Analgesic: reduction of painful stretchings caused by intraperitoneal acetic acid, oral, mouse; format: in vivo; conditions: 100 mg/Kg/p.o.
Protocol: The compounds of formula (I), administered by oral means to the mouse, are capable of reducing the number of painful stretchings caused by the intraperitoneal injection of acetic acid.
By way of example, the following Table III lists the results obtained by administration of 100 mg/Kg/p.o. of different compounds of formula (I).

[6] = system: bronchoconstriction provoked in the guinea-pig by acetylcholine; assay: Antibronchoconstrictive and anticholinergic: bronchoconstriction by intravenous acetylcholine, Konzett method; format: in vivo
Description: Injected by intraveinous or intraduodenal means, the compounds of formula (I) are capable of opposing the bronchoconstriction provoked in the guinea-pig by the itraveinous injection of acetylcholine by the Konzett method.
By way of example, the following Table VII lists the results obtained by the administration of different compounds of formula (I)

[7] = system: rat suffering from high blood pressure; assay: Antihypertensive: return of systolic arterial pressure to normal in rats with high blood pressure; format: in vivo
Description: The compounds of formula (I), administered by oral means to a rat suffering from high blood pressure, are capable of lowering the systolic arteriel pressure.
By way of example, there is provided in the following Table IV the results obtained by administration of different compounds of formula (I).

[8] = system: isolated heart of a guinea-pig; assay: Vasodilatatory: coronary flow of isolated heart; conditions: 1 μg/ml in perfusion liquid
Protocol: The compounds of formula (I) are capable of augmenting the flow of the coronary vessels of the isolated heart of a guinea-pig when said compounds are added in the perfusion liquid of said organ.
By way of example, there can be found in the following Table X, the percentage augmentation of the flow of the isolated heart of a guinea-pig by adding different compounds of formula (I) to the perfusion liquid, in a concentration of 1 μg/ml.

[9] = system: ventricular fibrillations provoked by the inhalation of chloroform; assay: Antiarythmic: protection against ventricular fibrillations provoked by inhalation of chloroform; format: in vivo; conditions: i.p., mouse
Description: Administered by intraperitoneal means, the compounds of formula (I) are capable of protecting the mouse against the ventricular fibrillations provoked by the inhalation of chloroform.

[10] = system: gastric secretion measured after Shay ligature; assay: Gastric antisecretory: reduction of gastric secretion after Shay ligature, rat; format: in vivo; conditions: 50 mg/Kg/i.d.
Protocol: Administered by intraduodenal means to a rat, the compounds of formula (I) are capable of reducing the gastric secretion measured after Shay ligature.
By way of example, the following Table V gives the results obtained by administration of 50 mg/Kg/i.d. of different compounds of formula (I).

[11] = system: isolated duodenum of the rat; assay: Spasmolytic: opposing barium chloride contraction of isolated duodenum; conditions: papaverine as standard
Protocol: The compounds of formula (I), introduced in the conserving medium are capable of opposing the contractural action of barium chloride on the isolated duodenum of the rat. This activity is evaluated by taking papaverine as standard.

## O=C(CCn1c(CN2CCOCC2)nc2ccccc21)c1ccc(Cl)cc1 [72 359]
[1]
  Percentage reduction of Shay ulcers: 35%
[2]; 2 000 mg/Kg/p.o., 2000 mg/kg
  Percentage mortality: 0%

## COc1ccc(C(=O)CCn2c(CN3CCCCC3)nc3ccccc32)cc1OC [72 377]
[1]
  Percentage reduction of Shay ulcers: 55%
[3]
  Percentage reduction of number of explorations in the escape enclosure: 30%
[2]; 2 000 mg/Kg/p.o., 2000 mg/kg
  Percentage mortality: 0%

## CCN(CC)Cc1nc2ccccc2n1CCC(=O)c1ccc(Cl)cc1 [72 390]
[1]
  Percentage reduction of Shay ulcers: 40%
[4]
  Percentage reduction of sub-plantar oedema: 60%
[2]; 2 000 mg/Kg/p.o., 2000 mg/kg
  Percentage mortality: 0%

## COc1ccc(C(=O)CCn2c(CN3CCOCC3)nc3ccccc32)cc1OC [72 391]
[5]
  Percentage reduction of number of painful stretchings: 60%
[3]
  Percentage reduction of number of explorations in the escape enclosure: 50%
[6]; 100 mg/kg/i.d.
  Percentage inhibition of bronchoconstriction: 100%
[2]; 2 000 mg/Kg/p.o., 2000 mg/kg
  Percentage mortality: 0%

## COc1cc(C(=O)CCn2c(CN3CCCC3)nc3ccccc32)cc(OC)c1OC [72 414]
[7]; 150 mg/Kg/p.o.
  Percentage of rats with high blood pressure whose systolic arteriel pressure is returned to normal: 75%
[6]; 100 mg/kg/i.d.
  Percentage inhibition of bronchoconstriction: 50%

## CCCCOc1ccc(C(=O)CCn2c(CN3CCCCC3)nc3ccccc32)cc1 [72 464]
[3]
  Percentage reduction of number of explorations in the escape enclosure: 30%
[2]; 2 000 mg/Kg/p.o., 2000 mg/kg
  Percentage mortality: 0%

## Cc1ccc(C(=O)CCn2c(CN3CCOCC3)nc3ccccc32)cc1 [72 478]
[8]
  Percentage augmentations of flow of isolated heart of a guinea-pig: 50%
[2]; 2 000 mg/Kg/p.o., 2000 mg/kg
  Percentage mortality: 0%

## CN(C)Cc1nc2ccccc2n1CCC(=O)c1ccc(Cl)cc1 [72 479]
[7]; 200 mg/Kg/p.o.
  Percentage of rats with high blood pressure whose systolic arteriel pressure is returned to normal: 50%
[8]
  Percentage augmentations of flow of isolated heart of a guinea-pig: 80%
[1]
  Percentage reduction of Shay ulcers: 30%
[9]
  DE 50: 200 mg/Kg/i.p.
[2]; 2 000 mg/Kg/p.o., 2000 mg/kg
  Percentage mortality: 0%

## O=C(CCn1c(CN2CCCCC2)nc2ccccc21)c1ccc(F)cc1 [72 487]
[5]
  Percentage reduction of number of painful stretchings: 80%
[10]
  Percentage reductions in volume of gastric secretion: 40%
[6]; 100 mg/kg/i.d.
  Percentage inhibition of bronchoconstriction: 60%

## O=C(CCn1c(CN2CCCCCC2)nc2ccccc21)c1ccc(F)cc1 [72 488]
[1]
  Percentage reduction of Shay ulcers: 25%
[9]
  DE 50: 200 mg/Kg/i.p.
[4]
  Percentage reduction of sub-plantar oedema: 50%
[2]; 2 000 mg/Kg/p.o., 2000 mg/kg
  Percentage mortality: 0%

## COc1ccc(C(=O)CCn2c(CN(C)C)nc3ccccc32)cc1OC [72 490]
[8]
  Percentage augmentations of flow of isolated heart of a guinea-pig: 140%
[1]
  Percentage reduction of Shay ulcers: 30%

## O=C(CCn1c(CN2CCCCC2)nc2ccccc21)c1ccccc1 [72 491]
[7]; 200 mg/Kg/p.o.
  Percentage of rats with high blood pressure whose systolic arteriel pressure is returned to normal: 50%
[5]
  Percentage reduction of number of painful stretchings: 65%
[2]; 2 000 mg/Kg/p.o., 2000 mg/kg
  Percentage mortality: 0%

## O=C(CCn1c(CN2CCCC2)nc2ccccc21)c1ccccc1 [72 493]
[10]
  Percentage reductions in volume of gastric secretion: 25%

## O=C(CCn1c(CN2CCOCC2)nc2ccccc21)c1ccccc1 [72 494]
[10]
  Percentage reductions in volume of gastric secretion: 25%
[4]
  Percentage reduction of sub-plantar oedema: 40%
[2]; 2000 mg/kg, 2 000 mg/Kg/p.o.
  mortality: 0%

## CCCCOc1ccc(C(=O)CCn2c(CN3CCOCC3)nc3ccccc32)cc1 [72 523]
[5]
  Percentage reduction of number of painful stretchings: 45%
[10]
  Percentage reductions in volume of gastric secretion: 25%
[2]; 2 000 mg/Kg/p.o., 2000 mg/kg
  Percentage mortality: 0%

## COc1cc(C(=O)CCn2c(CN3CCOCC3)nc3ccccc32)cc(OC)c1OC.O=C(O)/C=C\C(=O)O [72 525]
[7]; 200 mg/Kg/p.o.
  Percentage of rats with high blood pressure whose systolic arteriel pressure is returned to normal: 50%
[6]; 100 mg/kg/i.d.
  Percentage inhibition of bronchoconstriction: 80%

## O=C(CCn1c(CN2CCOCC2)nc2ccccc21)c1ccc(F)cc1.O=C(O)/C=C\C(=O)O [72 526]
[7]; 100 mg/Kg/p.o.
  Percentage of rats with high blood pressure whose systolic arteriel pressure is returned to normal: 75%
[1]
  Percentage reduction of Shay ulcers: 40%
[4]
  Percentage reduction of sub-plantar oedema: 55%
[6]; 100 mg/kg/i.d.
  Percentage inhibition of bronchoconstriction: 75%

## COc1cc(C(=O)CCn2c(CN(C)C)nc3ccccc32)cc(OC)c1OC [72 534]
[6]; 100 mg/kg/i.d.
  Percentage inhibition of bronchoconstriction: 50%
[2]; 2 000 mg/Kg/p.o., 2000 mg/kg
  Percentage mortality: 0%

## Cc1ccc(C(=O)CCn2c(CN3CCCCC3)nc3ccccc32)c(C)c1 [72 540]
[3]
  Percentage reduction of number of explorations in the escape enclosure: 30%
[6]; 100 mg/kg/i.d.
  Percentage inhibition of bronchoconstriction: 50%
[2]; 2 000 mg/Kg/p.o., 2000 mg/kg
  Percentage mortality: 0%

## CCN(CC)Cc1nc2ccccc2n1CCC(=O)c1ccc(F)cc1.O=C(O)/C=C\C(=O)O [72 568]
[7]; 200 mg/Kg/p.o.
  Percentage of rats with high blood pressure whose systolic arteriel pressure is returned to normal: 50%
[9]
  DE 50: 200 mg/Kg/i.p.

## CCN(CC)Cc1nc2ccccc2n1CCC(=O)c1ccccc1 [72 573, 1-(2'-benzoylethyl maleate)-2-diethylaminomethyl benzimidazole]
[11]
  spasmolytic activity relative to papaverine: equivalent spasmolytic actvity to that of papaverine
[6]; 5 mg/kg/i.v.
  Percentage inhibition of bronchoconstriction: 100%
[2]; 1 250 mg/Kg/p.o.
  mortality: ~50%

## CCN(CC)Cc1nc2ccccc2n1CCC(=O)c1ccc(C)cc1.O=C(O)/C=C\C(=O)O [72 574]
[5]
  Percentage reduction of number of painful stretchings: 45%
[1]
  Percentage reduction of Shay ulcers: 45%

## COc1ccc(C(=O)CCn2c(CN3CCCC3)nc3ccccc32)cc1OC [72 617]
[5]
  Percentage reduction of number of painful stretchings: 70%

## CN(C)Cc1nc2ccccc2n1CCC(=O)c1ccc(F)cc1.O=C(O)/C=C\C(=O)O [72 663]
[5]
  Percentage reduction of number of painful stretchings: 60%
[3]
  Percentage reduction of number of explorations in the escape enclosure: 30%

## O=C(CCn1c(CN2CCCC2)nc2ccccc21)c1ccc(F)cc1 [72 708]
[5]
  Percentage reduction of number of painful stretchings: 60%
[1]
  Percentage reduction of Shay ulcers: 30%
[11]
  spasmolytic activity relative to papaverine: equivalent spasmolytic actvity to that of papaverine
[6]; 100 mg/kg/i.d.
  Percentage inhibition of bronchoconstriction: 90%

## Cc1ccc(C(=O)CCn2c(CN(C)C)nc3ccccc32)c(C)c1 [72 712]
[1]
  Percentage reduction of Shay ulcers: 55%
[3]
  Percentage reduction of number of explorations in the escape enclosure: 40%
[4]
  Percentage reduction of sub-plantar oedema: 70%
[2]; 2 000 mg/Kg/p.o., 2000 mg/kg
  Percentage mortality: 0%

## CCCCOc1ccc(C(=O)CCn2c(CN(CC)CC)nc3ccccc32)cc1 [72 727]
[6]; 100 mg/kg/i.d.
  Percentage inhibition of bronchoconstriction: 100%
